The record followed here is patent US20050049278A1, “Benzo[1,3]dioxole compounds, pharmaceutical compositions thereof, and processes of making and using the same” (priority 2003, published 2005).

pEC50: −log10 of the molar value. Read-outs that look alike come from different tables or passages of the source. A value given as a limit tells only on which side of the number the result lay.

What all share (assay type): cell-based
The subject of test [1] is HEK293 cells. In words: Cell cycle analysis by FACS of HEK293 cells. As for the experimental part: Fluorescence-activated cell sorting (FACS) analysis was used to examine the cell cycle state when the cells were incubated with compounds of formula (I) as well as several control compounds, including DMSO, noscapine (a known G2/M inhibitor), and colchicine (a known G2/M inhibitor).
In particular, HEK293 cells were cultured in DMEM media (Celigro) supplemented with 10% Fetal Bovine Serum (Tissue Culture Biologicals) and 1× Penicillin/Streptomycin/Glutamine (Gibco). The cells were grown at 37° C. with 5% CO2, plated in six-well plates at 2.5×10^6 cells/well, and treated for 16 to 24 hrs with the compounds at the concentrations shown in Table 1, below. The cells were then triturated off the bottom of the wells, washed 1× with PBS, then fixed with 70% ethanol, and stored at 4° C. before staining and FACS analysis.
The DNA content of cells was determined using a FacsVantage SE flow cytometry system (Becton Dickinson, San Jose, Calif.) and a Cellular DNA Flow Cytometric Analysis Kit (Roche Applied Science, Indianapolis, Ind.). Cell cycle analysis was performed using Cylchred 1.0.2 software.
A general note: A flow cytometer gives signals particle by particle.

Test [2] deals with HEK293 cells. Briefly: HEK293 cell viability, CellTiter 96 Aqueous One Solution Cell Proliferation assay. Conditions: Homo sapiens, HEK293, 48 h, read-out: EC50. The method, then: (§1) The effect of various doses of compounds 5a, 5a,b, and 9a on the viability of HEK293 cells was examined using the CellTiter 96 Aqueous One Solution Cell Proliferation assay (Promega). The HEK293 cells were cultured in DMEM media (Cellgro) or phenol red-free DMEM (Gibco) supplemented with 10% Fetal Bovine Serum (Tissue Culture Biologicals) and 1× Penicillin/Streptomycin/Glutamine (Gibco). The cells were grown at 37° C. with 5% CO2. HEK293 cells were seeded into each well of a 96-well plate (5000 cells/well) and incubated overnight to allow the cells to attach. The culture media was removed and replaced with 100 μl of phenol red-free media containing the compounds 5a, 5a,b, and 9a at various concentrations. The cells were allowed to grow in the presence of the compounds for 48 hrs. At the end of the treatment, 20 μl of CellTiter 96 Aqueous One Solution reagent was added directly into each well, and the cells were incubated at 37° C. for 2 hrs. This reagent converts to a form that absorbs light at 490 nm by living cells. Thus, absorbance at 490 nm is proportional to the number of viable cells. The 490 nm absorbance was measured on a BioRad plate reader. Control wells containing no cells were included in this assay to correct for background absorbance.

For a further test, the system named is H4 (glioma). In words: Cell viability (cell proliferation assay), H4. Conditions: 48 to 72 hr exposure. The method, then:
as §1, with “HEK293” for “The effect of various doses of compounds 5a, 5a,b, and 9a on the viability of HEK293 cells was examined using the CellTiter 96 Aqueous One Solution Cell Proliferation assay (Promega). The HEK293 cells were cultured in DMEM media (Cellgro) or phenol red-free DMEM (Gibco) supplemented with 10% Fetal Bovine Serum (Tissue Culture Biologicals) and 1× Penicillin/Streptomycin/Glutamine (Gibco). The cells were grown at 37° C. with 5% CO2. HEK293”
(§2) The effect of compound 9a on the viability of cancer cell lines as well as dividing and non-dividing mouse Swiss3T3 cells was studied.
(§3) In particular, the cell proliferation assay, as described in Example 15, was used to test the effect of a 48 to 72 hr exposure of these cell lines to compound 9a at various concentrations.

Test [3] concerns HeLa (cervical adenocarcinoma). In words: Cell viability (cell proliferation assay), HeLa. Conditions: Homo sapiens, 48 to 72 hr exposure. The method, then: as §1, with “HEK293” for “The effect of various doses of compounds 5a, 5a,b, and 9a on the viability of HEK293 cells was examined using the CellTiter 96 Aqueous One Solution Cell Proliferation assay (Promega). The HEK293 cells were cultured in DMEM media (Cellgro) or phenol red-free DMEM (Gibco) supplemented with 10% Fetal Bovine Serum (Tissue Culture Biologicals) and 1× Penicillin/Streptomycin/Glutamine (Gibco). The cells were grown at 37° C. with 5% CO2. HEK293”
as §2, §3

Another test relates to U937 (lymphoma). In words: Cell viability (cell proliferation assay), U937. Conditions: Homo sapiens, U-937, 48 to 72 hr exposure. The method, then:
as §1, with “HEK293” for “The effect of various doses of compounds 5a, 5a,b, and 9a on the viability of HEK293 cells was examined using the CellTiter 96 Aqueous One Solution Cell Proliferation assay (Promega). The HEK293 cells were cultured in DMEM media (Cellgro) or phenol red-free DMEM (Gibco) supplemented with 10% Fetal Bovine Serum (Tissue Culture Biologicals) and 1× Penicillin/Streptomycin/Glutamine (Gibco). The cells were grown at 37° C. with 5% CO2. HEK293”
as §2, §3

In the next test the test system is HL-60 (leukemia). Briefly: Cell viability (cell proliferation assay), HL-60. Conditions: Homo sapiens, 48 to 72 hr exposure. The method, then:
as §1, with “HEK293” for “The effect of various doses of compounds 5a, 5a,b, and 9a on the viability of HEK293 cells was examined using the CellTiter 96 Aqueous One Solution Cell Proliferation assay (Promega). The HEK293 cells were cultured in DMEM media (Cellgro) or phenol red-free DMEM (Gibco) supplemented with 10% Fetal Bovine Serum (Tissue Culture Biologicals) and 1× Penicillin/Streptomycin/Glutamine (Gibco). The cells were grown at 37° C. with 5% CO2. HEK293”
as §2, §3

Where [4] appears, read: HEK293, 0.1 μM, treated 16 to 24 hrs.

With `COc1ccc2c(c1N)C(=O)O[C@@H]2[C@H]1c2c(cc3c(c2OC)OCO3)CCN1C` [Compound 9a, 7-amino-6-methoxy-3-(4-methoxy-6-methyl-5,6,7,8-tetrahydro-[1,3]dioxolo[4,5-g]isoquinolin-5-yl)-3H-isobenzofuran-1-one], in the test with HEK293 cells [1] (setting [4]), the “Percent of Cells in G1” value is 1%. For the same compound, in the test on HEK293 cells [1] (setting [4]), the “Percent of Cells in G2/M” value is reported as 92.1%. In addition, in the test on HEK293 cells [1] (setting [4]), the “Percent of Cells in S” value was 6.9%. For the same compound, the “concentration at which activity was observed” value in the test with HEK293 cells [1] (HEK293, G2/M accumulation) was 0.1 µM. Besides, in the test with HEK293 cells [1] (HEK293, concentrations as in Table 1), the “accumulation of cells in G2/M” value is around 90%. The pEC50 was above 7.30 with HEK293 cells [2]; above 6.00 in the test on HEK293 cells [2] (text summary); above 7.30 in the test with H4 (glioma); above 7.30 in test [3]; above 7.30 in the test on U937 (lymphoma); above 7.30 in the test with HL-60 (leukemia).

By pEC50 is commonly meant −log10 of the EC50, conventionally taken in molar units.
